These results are taken from patent EP0719251B1, “BICYCLO (2.2.2) OCTANE DERIVATIVES CHOLECYSTOKININ AND/OR GASTRIN ANTAGONISTS” (JAMES BLACK FOUNDATION LIMITED, priority 1993, dated 1995).

One assay addresses T1, CCKB receptor (Mus musculus, UniProt P56481).
T1 construct: The whole brains from male mice (CD1 22-25g; Charles River) were removed; from tissue; host or cells: cerebral cortex membranes of male CD1 mice
T1 sequence (P56481 1-453): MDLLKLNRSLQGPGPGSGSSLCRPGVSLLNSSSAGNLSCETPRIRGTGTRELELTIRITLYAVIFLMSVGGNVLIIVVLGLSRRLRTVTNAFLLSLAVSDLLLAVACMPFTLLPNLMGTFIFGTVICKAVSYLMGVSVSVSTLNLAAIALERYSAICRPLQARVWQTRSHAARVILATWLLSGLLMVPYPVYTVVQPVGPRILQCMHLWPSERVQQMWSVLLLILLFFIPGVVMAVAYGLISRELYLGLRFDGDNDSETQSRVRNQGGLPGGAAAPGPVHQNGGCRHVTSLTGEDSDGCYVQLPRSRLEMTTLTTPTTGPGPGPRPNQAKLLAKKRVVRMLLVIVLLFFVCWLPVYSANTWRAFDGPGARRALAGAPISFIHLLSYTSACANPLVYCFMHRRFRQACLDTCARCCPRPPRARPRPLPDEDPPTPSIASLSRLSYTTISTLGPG
Briefly: radioligand binding assay at the CCKB receptor in mouse cortical membranes. To be noted: [125I]-CCK8S 200pM, 150 min at 21 ± 3°C, read-out: CCKB pKi (converted). The protocol:
The compounds of the examples were tested for binding at the CCKB receptor in mouse cortical membranes by means of a radioligand binding assay. The procedure was as follows:
The whole brains from male mice (CD1 22-25g; Charles River) were removed and placed in ice-cold buffer (pH7.2 @ 21 ± 3°C) of the following composition (mM); 10 HEPES, 130 NaCl, 4.7 KCl, 5 MgCl2, 1 EDTA and containing 0.25g.l^-1 bacitracin. The cortex was dissected, weighed and homogenised in 40ml ice-cold buffer using a Teflon-in-glass homogeniser. The homogenate was centrifuged at 39,800g for 20 min at 4°C, the supernatant discarded and the pellet resuspended by homogenisation in fresh buffer. The homogenate was recentrifuged (39,800g; 20 min @ 4°C) and the final pellet was resuspended in HEPES buffer to give a tissue concentration of 2mg.ml^-1(original wet weight).
The assay was terminated by rapid filtration through pre-soaked Whatman GF/B filters using a Brandell Cell harvester. The filters were washed (3 x 3ml) with ice-cold 50mM Tris-HCl (pH7.4 @ 4°C) and bound radioactivity determined by counting (1 min.) in a gamma-counter.

The target of the next assay is T2, gastrin (Rattus norvegicus, UniProt P30553).
T2 construct: The stomach was excised and flushed with ca. 1 ml of unbuffered physiological saline solution; from tissue; host or cells: isolated whole stomach of immature rats (33-50 g, ca. 21 days old)
T2 sequence (P30553 1-452): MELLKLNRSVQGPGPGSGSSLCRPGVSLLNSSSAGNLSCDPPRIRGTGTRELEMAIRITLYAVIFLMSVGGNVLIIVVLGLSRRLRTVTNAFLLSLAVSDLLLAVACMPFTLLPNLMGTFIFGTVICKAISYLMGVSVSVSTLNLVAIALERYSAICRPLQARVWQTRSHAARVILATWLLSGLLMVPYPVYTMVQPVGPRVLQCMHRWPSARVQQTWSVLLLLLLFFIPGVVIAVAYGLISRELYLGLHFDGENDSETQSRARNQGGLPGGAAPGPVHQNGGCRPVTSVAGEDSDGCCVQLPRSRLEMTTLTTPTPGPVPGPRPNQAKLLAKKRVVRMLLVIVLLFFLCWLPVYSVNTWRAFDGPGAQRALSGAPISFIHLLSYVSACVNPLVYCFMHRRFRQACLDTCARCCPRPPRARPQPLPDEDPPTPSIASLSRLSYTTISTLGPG
Briefly: gastrin antagonist activity in an immature rat stomach assay. Conditions: isolated immature rat stomach, cumulative pentagastrin dose-response curves, acid secretion; read-out: Gastrin pKB (converted). The protocol: The compounds of the examples were also tested for gastrin antagonist activity in an immature rat stomach assay. The procedure was as follows: The oesophagus of immature rats (33-50 g, ca. 21 days old) was ligated at the level of the cardiac sphincter and the duodenal sphincter was cannulated. The stomach was excised and flushed with ca. 1 ml of unbuffered physiological saline solution. The fundus was punctured and cannulated. A further 4-5 ml of unbuffered solution was flushed through the stomach to ensure the preparation was not leaking. […] The stomach was continuously perfused at a rate of 1 ml min^-1 with unbuffered solution gassed with 100% O2 with the perfusate passing over an internally referenced pH-electrode fixed 12 cm above the stomach. After 120 min of stabilisation the drugs were added directly to the serosal solution in the organ bath and after a further 60 min cumulative pentagastrin dose-response curves were started.

For another assay, the target named is T3, CCKA (Cavia porcellus, UniProt Q63931).
T3 construct: The pancreatata were removed from male guinea-pigs (200-300g; Dunkin Hartley); from tissue; host or cells: pancreas membranes of male Dunkin Hartley guinea-pigs
T3 sequence (Q63931 1-430): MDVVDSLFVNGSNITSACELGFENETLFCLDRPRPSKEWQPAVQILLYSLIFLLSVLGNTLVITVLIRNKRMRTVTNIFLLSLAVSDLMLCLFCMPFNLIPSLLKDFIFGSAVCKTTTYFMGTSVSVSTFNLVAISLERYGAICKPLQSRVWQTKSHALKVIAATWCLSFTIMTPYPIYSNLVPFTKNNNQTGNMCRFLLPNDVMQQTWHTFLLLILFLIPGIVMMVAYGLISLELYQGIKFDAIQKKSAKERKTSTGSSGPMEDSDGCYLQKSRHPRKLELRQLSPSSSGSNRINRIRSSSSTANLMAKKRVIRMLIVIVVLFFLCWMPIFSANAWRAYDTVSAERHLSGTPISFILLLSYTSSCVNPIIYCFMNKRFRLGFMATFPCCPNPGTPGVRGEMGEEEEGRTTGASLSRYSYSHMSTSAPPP
Kind of assay: CCKA binding assay in guinea-pig pancreas membranes. To be noted: [125I]-CCK8(S) 200pM, containing 0.375 µM PD134,308, read-out: CCKA pKi (converted). The protocol: The compounds of the examples were also tested in a CCKÅ binding assay as follows:
The pancreatata were removed from male guinea-pigs (200-300g; Dunkin Hartley) and placed in ice-cold HEPES buffer (pH 7.2 @ 21 ± 3° ). The pancreatata were homogenised in 40 ml ice-cold HEPES buffer using a polytron (Brinkmann, PT10, setting 10) 4 x 1 second.
The homogenate was centrifuged at 39,800g for 15 min at 4°. The supernatant was discarded and the pellet re-suspended using a Teflon-in-glass homogeniser in 20 volumes of fresh buffer and recentrifuged as above. The final pellet was re-suspended using a Teflon-in-glass homogeniser to a tissue concentration of 1 mg.ml^-1 (original wet weight), and filtered through 500 µm pore-size Nytex mesh.
The membranes (400µl; containing 0.375 µM PD134,308) are incubated for 150 minutes at 21 ± 3° in a final volume of 0.5ml with HEPES buffer containing [^125I]-CCK8(S) (50µl; 200pM) and competing compound. Total and non-specific binding of [^125I]-CCK8 (S) are defined using 50µl of buffer and 50µl of 100nM L-364,718 respectively. The assay is terminated by rapid filtration through pre-soaked Whatman GF/B filters using a Brandell Cell Harvester. The filters were washed (3 x 3ml) with ice-cold 50mM Tris HCl (pH 7.4 at 4° ) and bound radioactivity is determined by counting (1 min) in a gamma counter.

With `O=C(O)c1cc(NC(=O)[C@H](Cc2ccc(Cl)cc2)NC(=O)C2C3c4ccccc4C(c4ccccc43)C2C(=O)NCC23CC4CC(CC(C4)C2)C3)cc(C(=O)O)c1` (single isomer, unassigned) [Example 10, cis-7-(1S-(3,5-dicarboxyphenylaminocarbonyl)-2-(4-chlorophenyl)-ethylaminocarbonyl)-8-(1-adamantanemethylaminocarbonyl) -2,3,5,6-dibenzobicyclo[2.2.2]octane], the Ki was 10 nM on CCKB receptor and 794 nM at CCKA. On gastrin, the Kb is 5.01 nM.

Regarding `O=C(O)c1cc(NC(=O)[C@H](Cc2ccccc2F)NC(=O)C2C3c4ccccc4C(c4ccccc43)C2C(=O)NCC23CC4CC(CC(C4)C2)C3)cc(C(=O)O)c1` (single isomer, unassigned) [Example 16, cis-7-(1S-(3,5-dicarboxyphenylaminocarbonyl)-2-(2-fluorophenyl)-ethylaminocarbonyl)-8-(1-adamantanemethylaminocarbonyl) -2,3,5,6-dibenzobicyclo[2.2.2]octane], the values for the Ki at CCKB receptor and on CCKA were 3.16 nM and 1000 nM, respectively. In addition, at gastrin, the Kb is 2.51 nM.

With `O=C(O)c1cc(NC(=O)[C@@H](Cc2cccs2)NC(=O)C2C3c4ccccc4C(c4ccccc43)C2C(=O)NCC23CC4CC(CC(C4)C2)C3)cc(C(=O)O)c1` (single isomer, unassigned) [Example 21, cis-7-(1R-(3,5-dicarboxyphenylaminocarbonyl)-2-(2-thiophenyl)ethylaminocarbonyl)-8-(1-adamantanemethylaminocarbonyl)-2,3,5,6-dibenzobicyclo[2.2.2]octane], the values for the Ki on CCKB receptor and on CCKA were 50.1 nM and 1260 nM, respectively. The Kb at gastrin was 63.1 nM.

As to `O=C(O)c1cc(NC(=O)[C@H](CCc2ccccc2)NC(=O)C2C3c4ccccc4C(c4ccccc43)C2C(=O)NCC23CC4CC(CC(C4)C2)C3)cc(C(=O)O)c1` (stereo partly drawn) [Example 36, cis-7-(1S-(3,5-dicarboxyphenylaminocarbonyl) -3-phenylpropylaminocarbonyl) -8-(1-adamantanemethyl-aminocarbonyl) -2,3,5,6-dibenzobicyclo[2.2.2]octane], the figures for the Ki at CCKB receptor and at CCKA were 63.1 nM and 2000 nM, respectively. For the same compound, on gastrin, the Kb was 31.6 nM.

Consider `O=C(O)c1cc(NC(=O)[C@@H](CCc2ccccc2)NC(=O)C2C3c4ccccc4C(c4ccccc43)C2C(=O)NCC23CC4CC(CC(C4)C2)C3)cc(C(=O)O)c1` (stereo partly drawn) [Example 37, cis-7-(1R-(3,5-dicarboxyphenylaminocarbonyl) -3-phenylpropylaminocarbonyl)-8-(1-adamintanemethylaminocarbonyl)-2,3,5,6-dibenzobicyclo[2.2.2] octane], for which the figures for the Ki at CCKB receptor and at CCKA were 100 nM and 2000 nM, respectively. Moreover, the Kb on gastrin was 63.1 nM.

Regarding `COC(=O)c1cc(NC(=O)[C@H](Cc2ccccc2)NC(=O)C2C3c4ccccc4C(c4ccccc43)C2C(=O)NCC23CC4CC(CC(C4)C2)C3)cc(C(=O)O)c1` (stereo partly drawn) [Example 42, cis-7-(1S-(3-carboxy-5-methoxycarbonyl-phenylaminocarbonyl)-2-phenylethylaminocarbcnyl)-8-(1-adamantanemethylaminocarbonyl) -2,3,5,6-dibenzobicyclo[2.2.2]octane], the Ki at CCKB receptor is 31.6 nM; at CCKA, 2000 nM. Also, the Kb at gastrin was 1580 nM.

As to `O=C(O)c1cc(NC(=O)[C@@H](Cc2ccccc2)NC(=O)C2C3c4ccccc4C(c4ccccc43)C2C(=O)NCC23CC4CC(CC(C4)C2)C3)cc(C(=O)O)c1` (single isomer, unassigned) [Example 4, cis-7-(1R-(3,5-dicarboxyphenylaminocarbonyl)-2-phenylethylaminocarbonyl)-8-(1-adamantananethylaminocarbonyl) -2,3,5,6-dibenzobicyclo[2.2.2]octane], the Ki was 15.8 nM at CCKB receptor and 1260 nM at CCKA. Moreover, at gastrin, the Kb was 15.8 nM.

For the compound `O=C(O)c1cc(NC(=O)[C@H](Cc2cccs2)NC(=O)C2C3c4ccccc4C(c4ccccc43)C2C(=O)NCC23CC4CC(CC(C4)C2)C3)cc(C(=O)O)c1` (single isomer, unassigned) [Example 7, cis-7-(1S-(3,5-dicarboxyphenylaminocarbonyl) -2-(2-thiophenyl)ethylaminocarbonyl)-8-(1-adamantanemethylaminocarbonyl) -2,3,5,6-dibenzobicyclo[2.2.2]octane], the Ki is 50.1 nM at CCKB receptor and 501 nM on CCKA. Further, the Kb on gastrin was 251 nM.

On to `O=C(O)c1cc(NC(=O)[C@H](Cc2cccc(F)c2)NC(=O)C2C3c4ccccc4C(c4ccccc43)C2C(=O)NCC23CC4CC(CC(C4)C2)C3)cc(C(=O)O)c1` (single isomer, unassigned) [Example 18, cis-7-(1S-(3,5-dicarboxyphenylaminocarbonyl)-2-(3-fluorophenyl) -ethylaminocarbonyl)-8-(1-adamantanemethylaminocarbonyl)-2,3,5,6-dibenzobicyclo[2.2.2]octane], for which the Ki on CCKB receptor was 3.16 nM; at CCKA, 316 nM. The Kb on gastrin is 3.98 nM.
